Tested on: human patients having XLMTM
Assay: Ursodiol treatment of hyperbilirubinemia after resamirigene bilparvovec
Assay type: in vivo
Procedure: A subject (115-9001) experienced an SAE of Grade 3 cholestasis which required hospitalization. The subject's medical history included cholestasis and elevated total bilirubin. Approximately 5 weeks after dosing, the subject had elevated direct bilirubin levels (Grade 2) which was treated with ursodiol and resolved 6 weeks later. Approximately 11 weeks after dosing, the subject experienced cholestasis and decision was made to hospitalize the subject 9 days after cholestasis was reported. The cholestasis resolved after approximately 12 weeks. Cholestasis was considered by the Investigator to be possibly related to resamirigene bilparvovec infusion. The subject's baseline history of cholestasis supports underlying disease as causal factor.
Cholestasis and hyperbilirubinemia are considered identified risks associated with resamirigene bilparvovec. Therefore, for subjects receiving resamirigene bilparvovec, ursodiol is recommended as prophylaxis for possible cholestatic syndromes. Ursodiol (ursodeoxycholic acid) is an enterally administered hydrophilic bile acid that can decrease the hydrophobic bile acid content within bile. […]

C[C@H](CCC(=O)O)[C@H]1CC[C@H]2[C@@H]3[C@@H](O)C[C@@H]4C[C@H](O)CC[C@]4(C)[C@H]3CC[C@]12C [ursodiol, Ursodeoxycholic acid]
Transient hyperbilirubinemia following resamirigene bilparvovec: response to ursodiol (in some cases): responsive
Elevated direct bilirubin (Grade 2) treated with ursodiol: time to resolution (subject 115-9001, after resamirigene bilparvovec 3.0×10^14 vg/kg): 6 weeks

From US20240366785A1 (priority 2021, published 2024)
